In paper PMC3984011 (Journal of medicinal chemistry, 2013):

Legend:
Type in all cases: cell-based
[1] = biological target: T1, DAGLβ (diacylglycerol lipase-β) (Mus musculus, UniProt Q91WC9); test: gel-based competitive ABPP, DAGLβ-HEK293T lysate, probe […]; settings: read-out: DAGLβ % inhibition (100 nM)
T1 sequence (Q91WC9 1-669): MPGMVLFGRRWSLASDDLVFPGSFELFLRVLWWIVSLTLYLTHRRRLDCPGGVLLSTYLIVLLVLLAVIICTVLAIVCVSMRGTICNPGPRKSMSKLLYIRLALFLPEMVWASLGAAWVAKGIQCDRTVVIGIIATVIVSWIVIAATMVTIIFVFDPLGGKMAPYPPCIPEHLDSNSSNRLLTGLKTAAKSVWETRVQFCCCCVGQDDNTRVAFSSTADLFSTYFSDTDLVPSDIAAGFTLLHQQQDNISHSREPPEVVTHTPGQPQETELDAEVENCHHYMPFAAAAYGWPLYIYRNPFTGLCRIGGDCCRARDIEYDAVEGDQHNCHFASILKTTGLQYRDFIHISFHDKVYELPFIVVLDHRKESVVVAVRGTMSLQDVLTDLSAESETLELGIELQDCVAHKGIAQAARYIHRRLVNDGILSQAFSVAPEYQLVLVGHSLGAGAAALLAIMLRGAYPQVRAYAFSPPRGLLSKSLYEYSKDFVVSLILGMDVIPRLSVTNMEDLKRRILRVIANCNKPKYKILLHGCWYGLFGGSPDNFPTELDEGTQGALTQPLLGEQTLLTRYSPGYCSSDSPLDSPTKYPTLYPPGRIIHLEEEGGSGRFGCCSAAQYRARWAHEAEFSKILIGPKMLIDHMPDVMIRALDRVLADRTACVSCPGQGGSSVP

[2] = biological target: T1, DAGLβ (diacylglycerol lipase-β); test: gel-based competitive ABPP, DAGLβ-HEK293T membrane lysate, probe […]; settings: read-out: DAGLβ % inhibition (100 nM)
[3] = biological target: T1, DAGLβ (diacylglycerol lipase-β); test: competitive ABPP-SILAC in Neuro2A; settings: N2a, read-out: % inhibition at 20 μM

SMILES: COc1ccccc1-c1ccc(-c2cn(C(=O)N3CCCCC3Cc3ccccc3)nn2)cc1 (racemic) [compound 27, KT172]
- inhibition at 0.1 µM [1]: 55.3%

SMILES: O=C(N1CCCCC1Cc1ccccc1)n1cc(-c2ccc(-c3ccccc3)cc2)nn1 (stereo not drawn) [compound 11, KT109]
- inhibition at 0.1 µM [2]: 60.8%

SMILES: Cc1cc(C)n2c1C=C1C=CC(CCC(=O)NCCCCCN(CCc3ccccc3)C(=O)n3cc(-c4ccc(OC(F)(F)F)cc4)nn3)=[N+]1[B-]2(F)F [compound 38, HT-01]
- inhibition at 20 µM [3]: > 80%
